ChEMBL document CHEMBL1153630, “Structure-activity relationship (SAR) of parthenin analogues with pro-apoptotic activity: Development of novel anti-cancer leads” (Bioorg Med Chem Lett, 2009)
Calls of active or inactive are those of the source. The rule behind the calls is not given here.

Legend:
HeLa = test: Cytotoxicity against human HeLa cells after 48 hrs by MTT assay; assay type: functional, cell-based
HL-60 [1] = test: Cytotoxicity against human HL60 cells after 48 hrs by MTT assay; assay type: functional, cell-based; conditions: HL-60, 48 h
HL-60 [2] = test: Induction of apoptosis in human HL60 cells assessed as DNA population at sub G0/G1 phase at 10 uM after 6 hrs by flow cytometry; assay type: functional
[3] = biological target: DNA topoisomerase 2-alpha (Homo sapiens) (UniProt P11388); test: Inhibition of human topoisomerase 2-mediated relaxation of supercoiled plasmid DNA at 10 uM after 1 hr by electrophoresis analysis
Sequence of DNA topoisomerase 2-alpha (Homo sapiens) (P11388 whole entry): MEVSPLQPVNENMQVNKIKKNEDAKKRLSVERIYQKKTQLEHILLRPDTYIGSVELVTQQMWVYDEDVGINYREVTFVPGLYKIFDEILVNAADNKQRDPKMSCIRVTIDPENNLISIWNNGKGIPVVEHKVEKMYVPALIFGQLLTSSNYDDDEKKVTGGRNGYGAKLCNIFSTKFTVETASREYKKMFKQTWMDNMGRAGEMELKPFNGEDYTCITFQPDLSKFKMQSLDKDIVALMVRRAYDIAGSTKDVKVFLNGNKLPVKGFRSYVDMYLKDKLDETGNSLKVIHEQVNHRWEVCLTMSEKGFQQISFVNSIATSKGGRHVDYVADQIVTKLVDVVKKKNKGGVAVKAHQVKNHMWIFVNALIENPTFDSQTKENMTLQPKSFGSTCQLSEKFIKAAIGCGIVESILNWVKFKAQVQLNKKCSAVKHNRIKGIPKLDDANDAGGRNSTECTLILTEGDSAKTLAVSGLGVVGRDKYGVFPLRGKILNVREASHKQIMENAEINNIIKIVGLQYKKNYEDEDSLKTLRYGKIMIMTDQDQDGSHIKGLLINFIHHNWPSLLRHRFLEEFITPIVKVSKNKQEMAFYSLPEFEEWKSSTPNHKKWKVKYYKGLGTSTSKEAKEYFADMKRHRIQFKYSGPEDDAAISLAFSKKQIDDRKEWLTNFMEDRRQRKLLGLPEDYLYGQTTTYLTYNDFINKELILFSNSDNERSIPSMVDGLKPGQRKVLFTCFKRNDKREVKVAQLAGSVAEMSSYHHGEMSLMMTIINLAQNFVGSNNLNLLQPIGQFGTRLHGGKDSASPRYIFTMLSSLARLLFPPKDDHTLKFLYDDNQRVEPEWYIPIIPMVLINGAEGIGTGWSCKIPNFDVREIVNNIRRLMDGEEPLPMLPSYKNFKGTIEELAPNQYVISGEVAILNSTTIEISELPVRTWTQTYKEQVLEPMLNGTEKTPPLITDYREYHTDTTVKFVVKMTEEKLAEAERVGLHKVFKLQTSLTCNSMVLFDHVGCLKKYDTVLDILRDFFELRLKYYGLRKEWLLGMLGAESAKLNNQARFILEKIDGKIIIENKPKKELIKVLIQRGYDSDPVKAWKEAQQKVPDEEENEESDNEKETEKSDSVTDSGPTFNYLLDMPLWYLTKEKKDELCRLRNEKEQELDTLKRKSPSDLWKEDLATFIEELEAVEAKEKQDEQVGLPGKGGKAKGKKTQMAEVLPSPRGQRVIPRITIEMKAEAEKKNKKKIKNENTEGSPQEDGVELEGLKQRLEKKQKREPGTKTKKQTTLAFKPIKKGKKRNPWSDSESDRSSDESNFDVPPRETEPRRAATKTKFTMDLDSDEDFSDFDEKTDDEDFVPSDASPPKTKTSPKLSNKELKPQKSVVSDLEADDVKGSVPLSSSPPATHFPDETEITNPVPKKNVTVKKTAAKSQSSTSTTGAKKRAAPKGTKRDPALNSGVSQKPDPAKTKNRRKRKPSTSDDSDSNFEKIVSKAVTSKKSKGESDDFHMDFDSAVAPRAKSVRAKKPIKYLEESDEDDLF

[4] = biological target: DNA topoisomerase 2-alpha (Homo sapiens) (UniProt P11388); test: Inhibition of human topoisomerase 2-mediated relaxation of supercoiled plasmid DNA at 100 uM after 1 hr by electrophoresis analysis
HL-60 [5] = test: Inhibition of telomerase expression in human HL60 cells at 10 uM after 6 hrs by Western blot analysis; assay type: functional; conditions: HL-60, 6 h

inhibition [3] | inhibition [4] | SMILES | IC50 (HeLa) [µM] | IC50 (HL-60 [1]) [µM] | Activity (HL-60 [2]) [%] | inhibition at 10 µM (HL-60 [5]) [%]
– | – | C[C@H]1CC[C@H]2[C@H](COCCO)C(=O)O[C@H]2[C@]2(C)C(=O)C=C[C@@]12O | 76 | 44 | 2.05 | –
– | – | C=C1C(=O)O[C@@H]2[C@H]1CC[C@H](C)[C@]13OC(c4ccccc4)O[C@H]1/C(=C/c1ccccc1)C(=O)[C@@]23C (some centres undefined) | 31 | 6 | 69.28 | –
– | – | C=C1C(=O)O[C@@H]2[C@H]1CC[C@H](C)[C@]1(O)C=C(/C=C/CC)C(=O)[C@@]21C | 73 | 45 | 1.6 | –
– | – | C=C1C(=O)O[C@@H]2[C@H]1CC[C@H](C)[C@]13OC(C)O[C@H]1CC(=O)[C@@]23C (some centres undefined) | 70 | 41 | 1.9 | –
– | – | C=C1C(=O)O[C@@H]2[C@H]1CC[C@H](C)[C@]1(O)C=C(/C=C/CCCCC)C(=O)[C@@]21C | 47 | 24 | 6.78 | –
– | – | C=C1C(=O)O[C@@H]2[C@H]1CC[C@H](C)[C@]13OC(c4ccc(OC)cc4)O[C@H]1/C(=C/c1ccc(OC)cc1)C(=O)[C@@]23C (some centres undefined) | 72 | 46 | 2.17 | –
– | – | CC1C(=O)O[C@@H]2[C@H]1CC[C@H](C)[C@]1(O)C=CC(O)[C@@]21C (some centres undefined) | 64 | 48 | 1.43 | –
– | – | C[C@H]1CC[C@@H]2[C@@H](OC(=O)C2(Br)CBr)[C@]2(C)C(=O)C=C[C@@]12O (some centres undefined) | 67 | 12 | 1.93 | –
– | – | C=C1C(=O)O[C@@H]2[C@H]1CC[C@H](C)[C@]13OC(CC)O[C@H]1CC(=O)[C@@]23C (some centres undefined) | 65 | 38 | 2.71 | –
– | – | C=C1C(=O)O[C@@H]2[C@H]1CC[C@H](C)[C@]1(O)C=C(C(O)c3ccc4c(c3)OCO4)C(=O)[C@@]21C (some centres undefined) | 73 | 18 | 2.13 | –
Active | Active | C=C1C(=O)O[C@@H]2[C@H]1CC[C@H](C)[C@]13OC(c4ccc(Cl)cc4)O[C@H]1/C(=C/c1ccc(Cl)cc1)C(=O)[C@@]23C (some centres undefined) | 12 | 3 | 94.1 | 80
– | – | C=C1C(=O)O[C@@H]2[C@H]1CC[C@H](C)[C@]1(O)C=C(C(O)/C=C/c3ccccc3)C(=O)[C@@]21C (some centres undefined) | 78 | 46 | 2.44 | –
– | – | C=C1C(=O)O[C@@H]2[C@H]1CC[C@H](C)[C@]13OC(Cc4ccco4)O[C@H]1/C(=C/Cc1ccco1)C(=O)[C@@]23C (some centres undefined) | 68 | 5 | 42.38 | –
– | – | C=C1C(=O)O[C@@H]2[C@H]1CC[C@H](C)[C@]1(O)[C@H](OC)CC(=O)[C@@]21C | 68 | 32 | 1.95 | –
– | – | C[C@H]1CC[C@@H]2[C@@H](OC(=O)C2(Br)CBr)[C@]2(C)C(=O)C(Br)=C[C@@]12O (some centres undefined) | 76 | 13 | 2.17 | –
– | – | C=C1C(=O)O[C@@H]2[C@H]1CC[C@H](C)[C@]1(O)[C@@H](O)/C(=C/c3ccc(Cl)cc3)C(=O)[C@@]21C | 44 | 9 | 19.38 | –
– | – | C=C1C(=O)O[C@@H]2[C@H]1CC[C@H](C)[C@]1(O)C=CC(=O)O[C@@]21C | 67 | 18 | 2.98 | –
– | – | C=C1C(=O)O[C@@H]2[C@H]1CC[C@H](C)[C@]1(O)[C@H](OCCO)CC(=O)[C@@]21C | 72 | 44 | 1.81 | –
– | – | C=C1C(=O)O[C@@H]2[C@H]1CC[C@H](C)[C@]13OC(/C=C/c4ccccc4)O[C@H]1/C(=C/C=C/c1ccccc1)C(=O)[C@@]23C (some centres undefined) | 25 | 7 | 82.97 | –

inhibition [3] | inhibition [4] | SMILES | IC50 (HeLa) [µM] | IC50 (HL-60 [1]) [µM] | Activity (HL-60 [2]) [%] | inhibition at 10 µM (HL-60 [5]) [%]
– | – | C[C@H]1CC[C@@H]2[C@@H](OC(=O)C2(O)CBr)[C@]2(C)C(=O)C=C[C@@]12O (some centres undefined) | 64 | 12 | 3.25 | –
– | – | C=C1C(=O)O[C@@H]2[C@H]1CC[C@H](C)[C@]1(O)[C@H](OCCC)CC(=O)[C@@]21C | 74 | 18 | 3.21 | –
– | – | C[C@H]1CC[C@@H]2[C@@H](OC(=O)C2(Br)CBr)[C@]2(C)C(=O)C(Br)C(Br)[C@@]12O (some centres undefined) | 61 | 8 | 18.33 | –
– | – | C=C1C(=O)O[C@@H]2[C@H]1CC[C@H](C)[C@]1(O)C=CC(=O)[C@@]21C [PARTHENIN] | 60 | 17 | 13.69 | –
– | – | CC(=O)OC1C=C[C@@]2(O)[C@@H](C)CC[C@H]3C(C)C(=O)O[C@H]3[C@]12C (some centres undefined) | 74 | 48 | 0.82 | –
– | – | C=C1C(=O)O[C@@H]2[C@H]1CC[C@H](C)[C@]13OC(c4ccc(OC)c(OC)c4)O[C@H]1/C(=C/c1ccc(OC)c(OC)c1)C(=O)[C@@]23C (some centres undefined) | 32 | 6 | 81.38 | –
– | – | C=C1C(=O)O[C@@H]2[C@H]1CC[C@H](C)[C@]1(O)C=C(/C=C/CCC)C(=O)[C@@]21C | 68 | 42 | 2.33 | –
– | – | C=C1C(=O)O[C@@H]2[C@H]1CC[C@H](C)[C@]1(O)[C@H](O)CC(=O)[C@@]21C | 68 | 50 | 1.17 | –
– | – | C=C1C(=O)O[C@@H]2[C@H]1CC[C@H](C)[C@]1(O)[C@H](OCCCC)CC(=O)[C@@]21C | 70 | 42 | 1.9 | –
– | – | C=C1C(=O)O[C@@H]2[C@H]1CC[C@H](C)[C@]13OC(c4ccc5c(c4)OCO5)O[C@H]1/C(=C/c1ccc4c(c1)OCO4)C(=O)[C@@]23C (some centres undefined) | 57 | 5 | 58.75 | –
– | – | C=C1C(=O)O[C@@H]2[C@H]1CC[C@H](C)[C@]13OCO[C@H]1CC(=O)[C@@]23C | 65 | 49 | 2.86 | –
– | – | C=C1C(=O)O[C@@H]2[C@H]1CC[C@H](C)[C@]1(O)C=C(CO)C(=O)[C@@]21C | 65 | 16 | 3.01 | –
– | – | C=C1C(=O)O[C@@H]2[C@H]1CC[C@H](C)[C@]1(O)C=C(C(O)c3ccc(Cl)cc3)C(=O)[C@@]21C (some centres undefined) | 70 | 17 | 2.76 | –
– | – | C=C1C(=O)O[C@@H]2[C@H]1CC[C@H](C)[C@]1(O)[C@H](OCC)CC(=O)[C@@]21C | 76 | 60 | 4.51 | –
– | – | C=C1C(=O)O[C@@H]2[C@H]1CC[C@H](C)[C@]13OCO[C@H]1C(CO)(CO)C(=O)[C@@]23C | 70 | 17 | 2.61 | –
– | – | C[C@H]1CC[C@H]2[C@H](COCCO)C(=O)O[C@H]2[C@]2(C)C(=O)C[C@@H](OCCO)[C@@]12O | 72 | 55 | 2.19 | –
– | – | C=C1C(=O)O[C@@H]2[C@H]1CCC(C)=C1C=CC(=O)[C@]12C | 74 | 16 | 2.95 | –
– | – | C=C1C(=O)O[C@@H]2[C@H]1CC[C@H](C)[C@]1(O)C=C(C(O)c3ccccc3)C(=O)[C@@]21C (some centres undefined) | 58 | 9 | 13.89 | –
